From US20040176446A1, “Substituted amino dicarboxylic acid derivatives” (priority 2001, published 2004)

melting point [°C] | SMILES
> 240 | O=C(O)CCCCN(CCc1cc(-c2ccc(F)cc2F)ccc1OCc1ccc(C2CCCCC2)cc1)Cc1ccc(C(=O)O)cc1 [Example 1, 4-{[(4-Carboxybutyl)(2-{4-[(4-cyclohexylbenzyl)oxy]-2′,4′-difluoro-1,1′-biphenyl-3-yl}ethyl)amino]methyl}benzoic acid]
> 240 | O=C(O)CCCCN(CCc1cc(-c2ccc(F)cc2F)ccc1OCc1ccc(-c2ccc(C(F)(F)F)cc2)cc1)Cc1ccc(C(=O)O)cc1 [Example 2, 4-({(4-Carboxybutyl)[2-(2′,4′-difluoro-4-{[4′-(trifluoromethyl)-1,1′-biphenyl-4-yl]methoxy}-1,1′-biphenyl-3-yl)ethyl]amino}methyl)benzoic acid]
